Earlier results in patent US11052155B2, “Conjugates of CC-1065 analogs and bifunctional linkers” (priority 2010, dated 2021).

Conditions: in vivo

For `COc1c(O)c2c(c3cc(C(=O)N4CCc5c4c(O)c(OC)c4[nH]c(C(=O)N6CC7CC78C6=CC(=O)c6[nH]cc(C)c68)cc54)[nH]c13)CCN2C(N)=O` (stereo not shown) [CC-1065], the hepatotoxicity is given as “serious delayed hepatotoxicity”.
